Source: the NIST ThermoML archive (doi:10.1021/acs.jced.6b00536)
Where “and” joins values, the source holds several entries; their conditions need not be identical. Identical values can stand only once.

Settings: Gas, Frequency=0.05 MHz, Single path-length method

FC(F)(F)C(F)(F)F [hexafluoroethane]
Settings	speed of sound
250.8 K, 68.9 kPa	127.66 m/s
250.8 K, 77.3 kPa	127.49 m/s
250.8 K, 95 kPa	127.13 m/s
250.8 K, 108.8 kPa	126.85 m/s
250.8 K, 128.5 kPa	126.44 m/s
250.8 K, 149.2 kPa	126.04 m/s
250.8 K, 169.4 kPa	125.61 m/s
250.8 K, 177.2 kPa	125.45 m/s
250.8 K, 195.4 kPa	125.08 m/s
250.8 K, 211.5 kPa	124.74 m/s
250.8 K, 225.5 kPa	124.44 m/s
256.2 K, 70.4 kPa	128.95 m/s
256.2 K, 78.9 kPa	128.78 m/s
256.2 K, 97 kPa	128.43 m/s
256.2 K, 111.1 kPa	128.17 m/s
256.2 K, 131.3 kPa	127.77 m/s
256.2 K, 152.5 kPa	127.38 m/s
256.2 K, 173.1 kPa	126.97 m/s
256.2 K, 181.1 kPa	126.82 m/s
256.2 K, 199.7 kPa	126.45 m/s
256.2 K, 216.2 kPa	126.14 m/s
256.2 K, 230.6 kPa	125.83 m/s
261.5 K, 71.8 kPa	130.24 m/s
261.5 K, 80.5 kPa	130.09 m/s
261.5 K, 99 kPa	129.73 m/s
261.5 K, 113.4 kPa	129.49 m/s
261.5 K, 134.1 kPa	129.1 m/s
261.5 K, 155.7 kPa	128.71 m/s
261.5 K, 176.8 kPa	128.32 m/s
261.5 K, 185 kPa	128.19 m/s
261.5 K, 204 kPa	127.83 m/s
261.5 K, 221 kPa	127.51 m/s
261.5 K, 235.7 kPa	127.24 m/s
266.8 K, 73.3 kPa	131.5 m/s
266.8 K, 82.1 kPa	131.33 m/s
266.8 K, 101.1 kPa	131.02 m/s
266.8 K, 115.7 kPa	130.77 m/s
266.8 K, 136.8 kPa	130.41 m/s
266.8 K, 158.9 kPa	130.04 m/s
266.8 K, 180.5 kPa	129.65 m/s
266.8 K, 188.9 kPa	129.52 m/s
266.8 K, 208.3 kPa	129.18 m/s
266.8 K, 225.6 kPa	128.87 m/s
266.8 K, 240.8 kPa	128.62 m/s
272.1 K, 74.7 kPa	132.77 m/s
272.1 K, 83.7 kPa	132.62 m/s
272.1 K, 103.1 kPa	132.3 m/s
272.1 K, 118 kPa	132.05 m/s
272.1 K, 139.6 kPa	131.72 m/s
272.1 K, 162.1 kPa	131.35 m/s
272.1 K, 184.3 kPa	131.01 m/s
272.1 K, 192.8 kPa	130.85 m/s
272.1 K, 212.6 kPa	130.53 m/s
272.1 K, 230.5 kPa	130.23 m/s
272.1 K, 246.8 kPa	129.96 m/s
277.4 K, 76.2 kPa	134.03 m/s
277.4 K, 85.4 kPa	133.89 m/s
277.4 K, 105.1 kPa	133.57 m/s
277.4 K, 120.4 kPa	133.33 m/s
277.4 K, 142.3 kPa	132.99 m/s
277.4 K, 165.4 kPa	132.66 m/s
277.4 K, 188 kPa	132.3 m/s
277.4 K, 196.7 kPa	132.17 m/s
277.4 K, 216.9 kPa	131.84 m/s
277.4 K, 235.2 kPa	131.58 m/s
277.4 K, 251.8 kPa	131.3 m/s
282.7 K, 77.6 kPa	135.27 m/s
282.7 K, 87 kPa	135.13 m/s
282.7 K, 107.1 kPa	134.83 m/s
282.7 K, 122.7 kPa	134.61 m/s
282.7 K, 145.1 kPa	134.28 m/s
282.7 K, 168.6 kPa	133.93 m/s
282.7 K, 191.6 kPa	133.6 m/s
282.7 K, 200.5 kPa	133.47 m/s
282.7 K, 221.3 kPa	133.16 m/s
282.7 K, 239.9 kPa	132.89 m/s
282.7 K, 256.9 kPa	132.64 m/s
287.9 K, 79.1 kPa	136.49 m/s
287.9 K, 88.6 kPa	136.37 m/s
287.9 K, 109.1 kPa	136.08 m/s
287.9 K, 125 kPa	135.85 m/s
287.9 K, 147.9 kPa	135.54 m/s
287.9 K, 171.8 kPa	135.21 m/s
287.9 K, 195.4 kPa	134.9 m/s
287.9 K, 204.4 kPa	134.76 m/s
287.9 K, 225.6 kPa	134.47 m/s
287.9 K, 244.5 kPa	134.2 m/s
287.9 K, 262 kPa	133.96 m/s
293.2 K, 80.5 kPa	137.71 m/s
293.2 K, 85.4 kPa	137.65 m/s
293.2 K, 90.3 kPa	137.61 m/s
293.2 K, 111.1 kPa	137.3 m/s and 137.31 m/s
293.2 K, 127.3 kPa	137.08 m/s and 137.09 m/s
293.2 K, 150.6 kPa	136.79 m/s and 136.8 m/s
293.2 K, 175 kPa	136.48 m/s
293.2 K, 175.1 kPa	136.49 m/s
293.2 K, 199 kPa	136.16 m/s
293.2 K, 203.7 kPa	136.09 m/s
293.2 K, 208.3 kPa	136.06 m/s
293.2 K, 229.9 kPa	135.75 m/s and 135.74 m/s
293.2 K, 249.1 kPa	135.49 m/s
293.2 K, 249.2 kPa	135.5 m/s
293.2 K, 265.6 kPa	135.26 m/s
293.2 K, 267 kPa	135.26 m/s
298.5 K, 82 kPa	138.94 m/s
298.5 K, 91.9 kPa	138.8 m/s
298.5 K, 113.1 kPa	138.55 m/s
298.5 K, 129.7 kPa	138.33 m/s
298.5 K, 153.4 kPa	138.03 m/s
298.5 K, 178.3 kPa	137.71 m/s
298.5 K, 202.8 kPa	137.42 m/s
298.5 K, 212.2 kPa	137.32 m/s
298.5 K, 234.2 kPa	137.02 m/s
298.5 K, 253.9 kPa	136.77 m/s
298.5 K, 272 kPa	136.54 m/s
303.7 K, 83.4 kPa	140.14 m/s
303.7 K, 93.5 kPa	140.03 m/s
303.7 K, 115.2 kPa	139.76 m/s
303.7 K, 132 kPa	139.56 m/s
303.7 K, 156.2 kPa	139.26 m/s
303.7 K, 181.5 kPa	138.98 m/s
303.7 K, 206.4 kPa	138.67 m/s
303.7 K, 216.1 kPa	138.57 m/s
303.7 K, 238.5 kPa	138.3 m/s
303.7 K, 258.6 kPa	138.06 m/s
303.7 K, 277.2 kPa	137.85 m/s
308.9 K, 84.9 kPa	141.33 m/s
308.9 K, 95.1 kPa	141.19 m/s
308.9 K, 117.2 kPa	140.94 m/s
308.9 K, 134.2 kPa	140.73 m/s
308.9 K, 158.9 kPa	140.47 m/s
308.9 K, 184.7 kPa	140.18 m/s
308.9 K, 210.1 kPa	139.9 m/s
308.9 K, 219.9 kPa	139.79 m/s
308.9 K, 242.8 kPa	139.54 m/s
308.9 K, 263.3 kPa	139.32 m/s
308.9 K, 282.1 kPa	139.06 m/s
314.1 K, 86.3 kPa	142.49 m/s
314.1 K, 96.8 kPa	142.38 m/s
314.1 K, 119.2 kPa	142.15 m/s
314.1 K, 136.6 kPa	141.94 m/s
314.1 K, 161.6 kPa	141.69 m/s
314.1 K, 187.9 kPa	141.4 m/s
314.1 K, 213.8 kPa	141.12 m/s
314.1 K, 223.7 kPa	140.99 m/s
314.1 K, 247.1 kPa	140.76 m/s
314.1 K, 267.9 kPa	140.53 m/s
314.1 K, 287.2 kPa	140.33 m/s
319.3 K, 87.7 kPa	143.67 m/s
319.3 K, 98.4 kPa	143.57 m/s
319.3 K, 121.2 kPa	143.32 m/s
319.3 K, 138.9 kPa	143.13 m/s
319.3 K, 164.4 kPa	142.88 m/s
319.3 K, 191.2 kPa	142.61 m/s
319.3 K, 217.5 kPa	142.34 m/s
319.3 K, 227.6 kPa	142.24 m/s
319.3 K, 251.3 kPa	141.97 m/s
319.3 K, 272.7 kPa	141.78 m/s
319.3 K, 292.2 kPa	141.56 m/s
324.5 K, 89.2 kPa	144.83 m/s
324.5 K, 100 kPa	144.71 m/s
324.5 K, 123.2 kPa	144.49 m/s
324.5 K, 141.2 kPa	144.31 m/s
324.5 K, 167.2 kPa	144.07 m/s
324.5 K, 194.4 kPa	143.8 m/s
324.5 K, 221.2 kPa	143.52 m/s
324.5 K, 231.5 kPa	143.44 m/s
324.5 K, 255.7 kPa	143.2 m/s
324.5 K, 277.3 kPa	142.99 m/s
324.5 K, 297.1 kPa	142.79 m/s
